The record followed here is patent US4292321A, “1,3,8-Triazaspirodecane-4-ones, pharmaceutical compositions thereof and method of use thereof” (Warner-Lambert Company, priority 1980, dated 1981).

Counter-ions that a name gives are not always drawn. Like-named read-outs stand apart in the source and are kept apart here.

This experiment addresses T1, dopamine receptor (Bos taurus, UniProt P20288).
T1 construct: from tissue
Kind of experiment: 3H-haloperidol receptor binding assay (HRBA). Particulars: for inhibition at 0.01 µM / inhibition at 0.1 µM: read-out: inhibition of 3H-haloperidol binding. The source says:
The compounds of this invention are useful because of their valuable pharmacological properties. […] As with other known neuroleptics, the compounds of this invention readily displace ^3 H-haloperidol from dopamine receptor binding sights in the ^3 H-haloperidol receptor binding assay (HRBA). […] The HRBA screen is described by I. Creese, D. R. Burt and S. H. Snyder, Science 142: 480 (1976) and by B. Seeman, T. Lee, M. Chani-Wong and K. Wong, Nature 261: 717 […].

T1 sequence (P20288 whole entry): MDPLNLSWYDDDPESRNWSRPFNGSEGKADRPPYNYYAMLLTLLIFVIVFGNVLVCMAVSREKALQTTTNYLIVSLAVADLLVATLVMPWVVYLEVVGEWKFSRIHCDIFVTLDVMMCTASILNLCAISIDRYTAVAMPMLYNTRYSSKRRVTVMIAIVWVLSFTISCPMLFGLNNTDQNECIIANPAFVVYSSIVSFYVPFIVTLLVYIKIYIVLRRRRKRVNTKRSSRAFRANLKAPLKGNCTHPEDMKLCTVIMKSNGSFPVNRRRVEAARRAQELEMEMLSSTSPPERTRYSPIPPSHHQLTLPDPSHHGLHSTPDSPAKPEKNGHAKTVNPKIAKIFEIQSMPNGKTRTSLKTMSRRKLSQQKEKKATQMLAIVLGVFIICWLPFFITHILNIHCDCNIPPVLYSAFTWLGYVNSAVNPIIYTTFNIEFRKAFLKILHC

As to `COc1ccccc1N1CCN(CCCN(c2ccc(F)cc2)c2ccc(F)cc2)CC1` [Example 35, N,N-bis(4-fluorophenyl)-4-(2-methoxyphenyl)-1-piperazinepropanamine dihydrochloride], the inhibition at 0.01 µM is roughly 28% and the inhibition at 0.1 µM is roughly 79%.
On the same counts, the results for `OCCN1CCN(CCCN(c2ccc(F)cc2)c2ccc(F)cc2)CC1` [Example 36, 4-[3-[Bis(4-fluorophenyl)amino]propyl]-1-piperazineethanol dihydrochloride] are roughly 21% and roughly 62%.
As for `Cl.Cl.Fc1ccc(N(CCCN2CCN(c3ccccc3)CC2)c2ccc(F)cc2)cc1` [Example 37, N,N-bis(4-fluorophenyl)-4-phenyl-1-piperazinepropanamine dihydrochloride], the inhibition at 0.1 µM was roughly 37%. Also, for the setting “10 n moles concentration”, the “inhibition of 3H-haloperidol binding” value is reported as “no inhibition”.
On the same counts, the results for `Fc1cccc(C2=CCN(CCCN(c3ccccc3)c3ccccc3)CC2)c1.O=C(O)C(=O)O` [Example 40, 4-(3-Fluorophenyl)-1,2,3,6-tetrahydro-N,N-diphenyl-1-pyridinepropanamine ethanedioate] are roughly 23% and “no inhibition”.
In the case of `Cc1cccc(C2CCN(CCCN(c3ccccc3)c3ccccc3)CC2)c1` [Example 41, N,N-diphenyl-4-[3-methylphenyl]-1-piperidinepropanamine butenedioate], the inhibition at 0.01 µM (10 n moles concentration) was roughly 25%. Moreover, for the setting “100 n moles concentration”, the inhibition at 0.1 µM is roughly 84%.
Consider `Fc1ccc(NC2CCN(CCCN(c3ccccc3)c3ccccc3)CC2)cc1` [Example 42, 4-[(4-Fluorophenyl)amino]-N,N-diphenyl-1-piperidinepropanamine ethanedioate], for which the inhibition at 0.01 µM is roughly 26% and the inhibition at 0.1 µM is roughly 90%.
For `OC(c1ccccc1)C1CCN(CCCN(c2ccccc2)c2ccccc2)CC1` (stereo not drawn) [Example 43, 1-[3-(Diphenylamino)propyl]-alpha-phenyl-4-piperidine methanol.], the “inhibition of 3H-haloperidol binding” value (10 n moles concentration) is reported as “no inhibition”. In addition, the inhibition at 0.1 µM (100 n moles concentration) was roughly 18%.
For the compound `O=C(c1ccc(Cl)cc1)C1CCN(CCCN(c2ccc(F)cc2)c2ccc(F)cc2)CC1` [Example 44, [1-[3-[Bis(4-fluorophenyl)amino]propyl]-4-piperidinyl]-(4-chlorophenyl)methanone ethanedioate], the inhibition at 0.01 µM was roughly 8% and the inhibition at 0.1 µM was roughly 69%.
For `c1ccc(N(CCCN2CCC3(CC2)OCCO3)c2ccccc2)cc1` [Example 45, N,N-diphenyl-1,4-dioxo-8-azaspiro[4,5]decane-8-propanamine ethanedioate.], the inhibition at 0.01 µM (10 n moles concentration) was roughly 10%. Further, under “100 n moles concentration”, the inhibition at 0.1 µM is roughly 26%.
With `c1ccc(N(CCCNC2=NC3CCC2CC3)c2ccccc2)cc1` [Example 46, N'-2-azabicyclo[2,2,2]-oct-2-en-3-yl-N,N-diphenyl-1,3-propanediamine], the inhibition at 0.01 µM (10 n moles concentration) was roughly 3%. The inhibition at 0.1 µM (100 n moles concentration) is roughly 12%.

The term inhibition denotes the change of the read-out against control, counted positive when it falls.
